Where a name gives a salt, the structure may show the parent alone.
Details: 101.33 kPa, Liquid; for viscosity: Falling or rolling sphere viscometry

CCCC(=O)OCCC(C)C [3-methylbutyl butanoate]
Details | mass density [kg/m3] | viscosity [mPa·s]
293.15 K | 866.13 | 1.044
298.15 K | 862.04 | 0.967
303.15 K | 859.14 | 0.897
308.15 K | 857.08 | 0.836
313.15 K | 853.42 | 0.781
318.15 K | 850.11 | 0.731
323.15 K | 845.78 | 0.686
328.15 K | 842.31 | 0.646
333.15 K | 840.73 | 0.609
338.15 K | 835.45 | 0.575
343.15 K | 832.76 | 0.545

CC(=O)OCCC(C)C [3-methylbutyl ethanoate]
Details | mass density [kg/m3] | viscosity [mPa·s]
293.15 K | 878.24 | 0.888
298.15 K | 876.01 | 0.827
303.15 K | 875.94 | 0.773
308.15 K | 873.1 | 0.724
313.15 K | 870.15 | 0.678
318.15 K | 867.32 | 0.638
323.15 K | 864.31 | 0.601
328.15 K | 860.14 | 0.567
333.15 K | 857.98 | 0.536
338.15 K | 854.05 | 0.507
343.15 K | 851.07 | 0.481

CCC/C=C/COC(C)=O [(E)-2-hexenyl acetate]
Details | mass density [kg/m3] | viscosity [mPa·s]
293.15 K | 897.84 | 0.901
298.15 K | 894.32 | 0.831
303.15 K | 891.78 | 0.77
308.15 K | 888.46 | 0.715
313.15 K | 884.35 | 0.666
318.15 K | 880.19 | 0.622
323.15 K | 876.14 | 0.582
328.15 K | 872.81 | 0.547
333.15 K | 867.49 | 0.514

CC/C=C\CCOC(C)=O [(Z)-3-hexenyl acetate]
Details | mass density [kg/m3] | viscosity [mPa·s]
293.15 K | 900.82 | 0.893
298.15 K | 897.14 | 0.823
303.15 K | 893.14 | 0.763
308.15 K | 890.28 | 0.708
313.15 K | 886.19 | 0.66
318.15 K | 881.43 | 0.616
323.15 K | 877.89 | 0.576
328.15 K | 875.21 | 0.542
333.15 K | 871.43 | 0.509

CC/C=C\CCOC=O [(Z)-3-hexenyl formate]
Details | mass density [kg/m3] | viscosity [mPa·s]
293.15 K | 909.15 | 0.599
298.15 K | 908.13 | 0.561
303.15 K | 906.6 | 0.527
308.15 K | 904.95 | 0.496
313.15 K | 903.17 | 0.469
318.15 K | 901.19 | 0.443
323.15 K | 898.99 | 0.421
328.15 K | 896.72 | 0.4
333.15 K | 894.16 | 0.38
338.15 K | 891.54 | 0.363
343.15 K | 888.73 | 0.346

CCCCOC(=O)CCC [butyl butanoate]
Details | mass density [kg/m3] | viscosity [mPa·s]
293.15 K | 872.45 | 0.948
298.15 K | 869.14 | 0.876
303.15 K | 866.1 | 0.812
308.15 K | 862.19 | 0.755
313.15 K | 858.94 | 0.705
318.15 K | 854.31 | 0.659
323.15 K | 851.47 | 0.618
328.15 K | 848.01 | 0.581
333.15 K | 846.22 | 0.548
338.15 K | 844.03 | 0.517
343.15 K | 841.47 | 0.486

CCCCOC(C)=O [butyl ethanoate]
Details | mass density [kg/m3] | viscosity [mPa·s]
293.15 K | 881.04 | 0.732
298.15 K | 876.45 | 0.677
303.15 K | 871.3 | 0.628
308.15 K | 866.25 | 0.585
313.15 K | 861.84 | 0.546
318.15 K | 857.32 | 0.512
323.15 K | 854.61 | 0.481
328.15 K | 850.78 | 0.453
333.15 K | 847.92 | 0.428
338.15 K | 844.39 | 0.405
343.15 K | 841.77 | 0.384

CC/C=C\CCOC(=O)C(C)C [cis-3-hexenyl isobutyrate]
Details | mass density [kg/m3] | viscosity [mPa·s]
293.15 K | 885.08 | 1.024
298.15 K | 878.12 | 0.941
303.15 K | 873.61 | 0.868
308.15 K | 870.34 | 0.804
313.15 K | 865.22 | 0.741
318.15 K | 861.49 | 0.69
323.15 K | 857.38 | 0.65
328.15 K | 852.44 | 0.606
333.15 K | 848.44 | 0.56
338.15 K | 845.31 | 0.535
343.15 K | 840.09 | 0.503

From the NIST ThermoML archive (doi:10.1021/je050001c)
